Laboratory results: patent US20050245510A1 (Boehringer Ingelheim Vetmedica GmbH, priority 2004, published 2005)

How the values were obtained:
[1] = tested on: E. coli endotoxin 026:B6 lipopolysaccharide induced mastitis in lactating cows; assay type: in vivo
Protocol: A blinded in-vivo study with a parallel group design was conducted in 2003. The study was conducted according to Good Laboratory Practices.
The animals were clinically examined before endotoxin-challenge and at 2 h (before treatment), 4 h, 6 h, 8 h, 10 h, 24 h, 34 h, 48 h, 72 h, 7 days, and 14 days after endotoxin-challenge.
The size of the challenged udder quarter was documented using the following score: • 0 Normal • 1 Slight increase up to 20% • 2 20-50% increase • 3 More than 50% increase
Ruminal contractions during a 2 minutes period were examined by auscultation in the left paralumbar fossa. In painful conditions of any kind, the frequency of ruminal contractions in ruminants tends to decrease.
Milk samples for analysis of thromboxane B2 (TBX)—a relevant mediator of inflammation—were taken from the endotoxin-challenged quarter before endotoxin challenge and at 2 h (before treatment), 4 h, 6 h, 8 h, 10 h, and 24 h after endotoxin-challenge.
Milk somatic cell count (SCC) was measured before endotoxin-challenge and at 10 h, 24 h, 34 h, 48 h, 72 h, 7 days, and 14 days after challenge.

[2] = tested on: mastitis cases; details: infused intramammarily in special vehicle together with amoxicillin/clavulanic acid; cited from earlier work

| SMILES | ruminal contractions in 2 min, mean ± S.D. ([1]; 30 mg meloxicam per quarter, at 24 h after challenge) | size of challenged udder quarter, mean score ± S.D. ([1]; 30 mg meloxicam per quarter, intramammary 2 h after challenge, at 10 h after challenge) | standardised difference of udder size score versus untreated ([1]; 30 mg meloxicam, 10 h, difference in means divided by larger S.D. (untreated group)) | standardised difference of ruminal contractions versus untreated ([1]; 30 mg meloxicam, 24 h, calculated with larger S.D. (untreated group)) | local and systemic tolerance ([1]; intramammary, dose range 10-50 mg per affected udder quarter) | effect on pain perception [2] |
| --- | --- | --- | --- | --- | --- | --- |
| Cc1cnc(NC(=O)C2=C(O)c3ccccc3S(=O)(=O)N2C)s1 [meloxicam] | 3.4±0.55 | 1.2±0.44 score (0-3) | 1.2 | 0.9 | good | – |
| Cc1c(Nc2ncccc2C(=O)O)cccc1C(F)(F)F [flunixin, flunixin meglumine] | – | – | – | – | – | no beneficial effect on pain perception |
